Key:
[1] = system: subjects with Age-Associated Memory Impairment; assay: Safety and tolerability (TEAEs), 6-week AAMI study; format: in vivo, human
Experimental: All randomized subjects that received at least 1 dose of study medication were included in the Safety Population.
Safety evaluations were based on the safety population. Safety and tolerability were assessed in terms of AEs, vital signs, 12-lead ECG, clinical laboratory data, medical history, and study drug compliance. Safety and tolerability data were presented by treatment group.

[2] = system: patients with diabetes mellitus and eGFR <90 mL/min/1.73 m^2 for ≥3 months; assay: ANCHOR post-hoc: lipids/lipoproteins, apolipoproteins, oxidation and inflammation markers; format: in vivo, human
Experimental: A multi-center, placebo-controlled, randomized, double-blind, 12-week study is performed to evaluate the efficacy and safety of >96% E-EPA in patients with fasting triglyceride levels ≥200 mg/dl and <500 mg/dl despite statin therapy (the mean of two qualifying entry values needs to be ≥185 mg/dl and at least one of the values needs to be ≥200 mg/dl). The primary objective of the study is to determine the efficacy of >96% E-EPA 2 g daily and 4 g daily, compared to placebo, in lowering fasting TG levels in patients with high risk for cardiovascular disease and with fasting TG levels ≥200 mg/dL and <500 mg/dL, despite treatment to LDL-C goal on statin therapy.
The primary efficacy variable for the double-blind treatment period is percent change in TG from baseline to Week 12 endpoint. The secondary efficacy variables for the double-blind treatment period include the following: • Percent changes in total cholesterol (TC), high-density lipoprotein cholesterol (HDL-C), LDL-C, calculated non-HDL-C, and very low-density lipoprotein cholesterol (VLDL-C) from baseline to Week 12 endpoint; • Percent change in very low-density lipoprotein TG from baseline to Week 12; • Percent changes in apolipoprotein A-I (apo A-I), apolipoprotein B (apo B), and apo A-I/apo B ratio from baseline to Week 12; • Percent changes in lipoprotein(a) from baseline to Week 12; • Percent changes in LDL particle number and size, measured by nuclear magnetic resonance, from baseline to Week 12; • Percent change in remnant-like particle cholesterol from baseline to Week 12; • Percent change in oxidized LDL from baseline to Week 12; • Changes in FPG and HbA1c from baseline to Week 12; • Change in insulin resistance, as assessed by the homeostasis model index insulin resistance, from baseline to Week 12; • Percent change in lipoprotein associated phospholipase A2 (Lp-PLA2) from baseline to Week 12; • Change in intracellular adhesion molecule-1 from baseline to Week 12; • Change in interleukin-2 from baseline to Week 12; • Change in plasminogen activator inhibitor-1 from baseline to Week 12. Note: this parameter will only be collected at sites with proper storage conditions; • Change in hsCRP from baseline to Week 12; and • Change in plasma concentration and red blood cell membrane content of fatty acid from baseline to Week 12 including EPA, DPA, DHA, AA, dihomo-γ-linolenic acid (DGLA), the ratio of EPA/AA, ratio of oleic acid/stearic acid (OA/SA), and the ratio of total omega-3 acids over total omega-6 acids.
CVD-related (e.g., atherogenic) parameters were analyzed in a post-hoc study of 198 patients from the multi-center, placebo-controlled, randomized double-blind, 12-week study described in Example 1. These 198 patients have reduced kidney reduced function (e.g., eGFR<90 mL/min/1.73 m^2 for ≥3 months) and diabetes mellitus.
Objective. The primary objective of this post-hoc study was to determine if and how 4 g of daily of >96% E-EPA, compared to placebo, affects patients with reduced kidney function, diabetes mellitus, and high triglyceride levels. The secondary objective was to determine if and how 4 g daily >96% E-EPA, compared to placebo, affected CVD-related parameters in patients having a high risk for CVD and fasting TG levels […]200 mg/dL and <500 mg/dL, despite treatment to LDL-C goal on statin therapy. These CVD-parameters include lipid levels, lipoprotein levels, and inflammatory markers, such as TC, LDL-C, HDL-C, VLDL-C, VLDL-TG, RLP-C, non-HDL-C, Apo B, Apo C-III, Lp-PLA2, hsCRP, and ox-LDL, and in plasma and RBC EPA concentration. CVD-parameters were analyzed for median difference in percent change from baseline to week 12 in subjects receiving 4 g/day of E-EPA and those receiving the placebo.
Subjects: 98 patients were randomized to E-EPA and 100 patients were randomized to placebo. In total, atherogenic parameters were analyzed in all 198 patients, 56% of which were male and 97% of which were white. The mean age of the 198 patients was 63 years old. […]

[3] = 4 g/day group, before treatment
[4] = 4 g/day, week 12, Hodges-Lehmann

CC/C=C\C/C=C\C/C=C\C/C=C\C/C=C\CCCC(=O)OCC [E-EPA, ethyl eicosapentaenoate]
subjects with nausea Possibly Related to the study drug ([1]; 1 g E-EPA cohort): two | TEAE Probably Related to the study drug ([1]; 1 g E-EPA, one subject): nausea | subjects with nausea Possibly Related to the study drug ([1]; 2 g E-EPA cohort): one | Serious Adverse Event (worsening epigastric chest pain), relation to study drug ([1]; 2 g E-EPA, one subject): unrelated to the study drug | subjects with nausea Possibly Related to the study drug ([1]; 4 g E-EPA cohort): two | TEAE Probably Related to the study drug ([1]; 4 g E-EPA, one subject): diarrhea | SAE reported ([1]; E-EPA 2 g treatment group): One | subjects discontinued due to TEAEs ([1]; E-EPA 2 g treatment group): 2 subjects | TEAEs reported ([1]; E-EPA treatment groups (1, 2, 4 g), placebo groups 34 events): 105 events | TEAEs Definitely Related to the study drug ([1]; all groups): No TEAEs were Definitely Related to the study drug | deaths during the study ([1]; all groups): no deaths | RLP-C Baseline, median ([2]; 4 g/day group (n = 34), before treatment): 14.0 mg/dL | Ox-LDL Baseline, median (IQR) ([2]; 4 g/day group (n = 41), before treatment): 54.2 (15.8) U/L | Apo B Baseline, median (IQR) [2, 3]: 92.0 (22.0) mg/dL | Apo C-III Baseline, median (IQR) [2, 3]: 42.0 (20.0) mg/dL | HDL-C Baseline, median [2, 3]: 36.0 mg/dL | LDL-C Baseline, median [2, 3]: 82.5 mg/dL | Lp-PLA2 Baseline, median (IQR) [2, 3]: 178.0 (54.0) ng/mL | Non-HDL-C Baseline, median [2, 3]: 128.5 mg/dL | TC Baseline, median [2, 3]: 169.5 mg/dL | TG Baseline, median [2, 3]: 262.5 mg/dL | VLDL-C Baseline, median [2, 3]: 42.0 mg/dL | VLDL-TG Baseline, median [2, 3]: 186.0 mg/dL | hsCRP Baseline, median (IQR) [2, 3]: 2.2 (2.9) mg/L | reduction of triglycerides compared to placebo ([2]; 4 g/day, 12 weeks, P<0.0001): about 19.7% | Apo B Change From Baseline, %, median (IQR) ([2]; 4 g/day, week 12): −3.5 (17.0) % | Apo B End of Treatment, median (IQR) ([2]; 4 g/day, week 12): 88.0 (25.0) mg/dL | Apo C-III Change From Baseline, %, median (IQR) ([2]; 4 g/day, week 12): −12.3 (45.6) % | Apo C-III End of Treatment, median (IQR) ([2]; 4 g/day, week 12): 36.5 (23.0) mg/dL | HDL-C Change From Baseline, %, median ([2]; 4 g/day, week 12): −3.0% | HDL-C End of Treatment, median ([2]; 4 g/day, week 12): 37.0 mg/dL | LDL-C Change From Baseline, %, median ([2]; 4 g/day, week 12): −2.1% | LDL-C End of Treatment, median ([2]; 4 g/day, week 12): 83.0 mg/dL | Lp-PLA2 Change From Baseline, %, median (IQR) ([2]; 4 g/day, week 12): −14.4 (16.5) % | Lp-PLA2 End of Treatment, median (IQR) ([2]; 4 g/day, week 12): 160.0 (52.0) ng/mL | Non-HDL-C Change From Baseline, %, median ([2]; 4 g/day, week 12): −6.0% | Non-HDL-C End of Treatment, median ([2]; 4 g/day, week 12): 120.5 mg/dL | Ox-LDL Change From Baseline, %, median (IQR) ([2]; 4 g/day, week 12): −8.2 (17.8) % | Ox-LDL End of Treatment, median (IQR) ([2]; 4 g/day, week 12): 49.5 (12.8) U/L | TC Change From Baseline, %, median ([2]; 4 g/day, week 12): −5.2% | TC End of Treatment, median ([2]; 4 g/day, week 12): 160.5 mg/dL | TG Change From Baseline, %, median ([2]; 4 g/day, week 12): −19.3% | TG End of Treatment, median ([2]; 4 g/day, week 12): 209.8 mg/dL | VLDL-C Change From Baseline, %, median ([2]; 4 g/day, week 12): −12.3% | VLDL-C End of Treatment, median ([2]; 4 g/day, week 12): 36.5 mg/dL | VLDL-TG Change From Baseline, %, median ([2]; 4 g/day, week 12): −19.2% | VLDL-TG End of Treatment, median ([2]; 4 g/day, week 12): 146.0 mg/dL | hsCRP Change From Baseline, %, median (IQR) ([2]; 4 g/day, week 12): −2.4 (81.7) % | hsCRP End of Treatment, median (IQR) ([2]; 4 g/day, week 12): 1.7 (3.0) mg/L | Apo B Median Difference in % Change From Baseline vs. Placebo [2, 4]: −10.1, <0.0001% | Apo C-III Median Difference in % Change From Baseline vs. Placebo [2, 4]: −19.0, 0.0006% | HDL-C Median Difference in % Change From Baseline vs. Placebo [2, 4]: −7.0, 0.0009% | LDL-C Median Difference in % Change From Baseline vs. Placebo [2, 4]: −7.1, 0.0375% | Lp-PLA2 Median Difference in % Change From Baseline vs. Placebo [2, 4]: −16.6, <0.0001% | Non-HDL-C Median Difference in % Change From Baseline vs. Placebo [2, 4]: −13.7, <0.0001% | Ox-LDL Median Difference in % Change From Baseline vs. Placebo [2, 4]: −16.2, <0.0001% | RLP-C Median Difference in % Change From Baseline vs. Placebo [2, 4]: −35.4, 0.0029% | TC Median Difference in % Change From Baseline vs. Placebo [2, 4]: −12.5, <0.0001% | TG Median Difference in % Change From Baseline for Icosapent Ethyl 4 g/day vs. Placebo [2, 4]: −19.7, <0.0001% | VLDL-C Median Difference in % Change From Baseline vs. Placebo [2, 4]: −19.0, 0.0006% | VLDL-TG Median Difference in % Change From Baseline vs. Placebo [2, 4]: −22.3, <0.0001% | hsCRP Median Difference in % Change From Baseline vs. Placebo [2, 4]: −24.4, 0.0120% | RLP-C Change From Baseline, %, median ([2]; 4 g/day, week 12, n = 34): −28.9% | RLP-C End of Treatment, median ([2]; 4 g/day, week 12, n = 34): 9.5 mg/dL

From patent US20230248741A1, “Compositions and Methods for Lowering Triglycerides in a Subject with Reduced Kidney Function and Diabetes Mellitus” (Amarin Pharmaceuticals Ireland Limited, priority 2018, published 2023)
